# Species: Mus musculus
# Assay: Compound was evaluated for meiosis inducing effect on immature mouse oocytes; Positive
# Assay type: functional
smiles,measurement,value
CC(C)=CCC[C@@H](C)[C@H]1CC=C2C3=C(CC[C@@]21C)[C@@]1(C)CC[C@H](O)C(C)(C)[C@@H]1CC3,Activity,Positive

# — ChEMBL document CHEMBL1133489, “Synthesis of FF-MAS from lithocholic acid” (Bioorg Med Chem Lett, 2000)
